Reference: US20230241000A1, “GSK3 INHIBITOR-LOADED NANO FORMULATIONS AS A CANCER IMMUNOTHERAPEUTIC” (The Regents of the University of California, priority 2020, published 2023)
“Also recorded” adds a separate entry of the source.

Tests used:
[1] = Remote loading of GSK3 inhibitors into silicasomes: encapsulation efficiency and loading capacity; format: physicochemical
Method: The overall scheme for the synthesis of silicasome carriers to deliver GSK3 inhibitors is outlined in FIG. 3. Briefly, a large batch (i.e. 120 g) synthesis of bare particles was carried out as previously, yielding ˜70 nm MSNPs (FIG. 3, panel A) (22). […] 20 mg soaked-in MSNPs were then used together with an ethanol suspended lipid solution, comprised of a mixture of 60 mg DSPC:Cholesterol:PE-PEG2000 (molar ratio of 6:4:0.3), for coating with a lipid bilayer by a flow through sonication procedure (FIG. 3, panel B). Following the removal of the non-encapsulated trapping agent, AZD2858, AZD1080, LY2090314, and 1-Azakenpaullone were dissolved in 0.9% saline and incubated with the silicasome carrier to assess the loading capacity in response to different feed weight percentages (FIG. 11).
Four GSK3 inhibitor-laden silicasome formulations were analyzed to assess encapsulation efficiency and loading capacity. 100 μL of the silicasomes suspension at 10 mg/mL in 0.9% NaCl (1 mg silicasomes) was added to AZD1080, AZD2858, LY2090314, and 1-azakenpaullone solutions, which were prepared by adding 50, 100 or 200 μg of each inhibitor to 900 μL water. These drug mass quantities provided feed weight percentages of 5, 10, and 20%, in comparison to the silicasome mass. Following execution of the remote loading procedure as detailed above, the crude solutions were used to assess absorbance in a glass bottom 96-well plate (Total Drug Absorbance). Silicasomes were centrifuged at 21,000×g for 15 minutes to pellet the particles. After removal of the supernatant, the silicasomes were re-suspended in aa fresh 0.9% NaCl solution. This was repeated three times to remove any unloaded inhibitor. The silicasome solution was then sampled and absorbance was measured to determine Loaded Drug Absorbance. Concentration-matched unloaded ‘blank’ silicasomes also had absorbance measured (Silicasome Blank Absorbance). Encapsulation efficiency was calculated by the following formula: […]
All measurements were taken using a SpectraMax M5 plate reader (Molecular Devices). All solutions were diluted 1/10 in 0.9% NaCl solution prior to absorbance reads. The absorbances used for each compound were: 418 nm for AZD1080, 383 nm for AZD2858, 213 nm for LY2090314, and 334 nm for 1-azakenpaullone.

Tbx21 expression = assay: RT-qPCR of Tbx21 in anti-CD3 activated primary murine T-cells; format: cell-based, C57BL/6 mouse; conditions: 10 μM, 72 hours, normalized against Gapdh
Method: This is compatible with the translational expression of T-bet, a transcription factor that interferes in PD-1 expression (FIG. 1, panel B).
Wells of a 96-well tissue culture plate were coated with anti-mouse CD3 antibody (Ultra-LEAF, Biolegend). 7.5 μL of 1 mg/mL antibody solution was diluted in 1 mL of 1×PBS, before 50 μL of the dilution was added to each plate well for 2 hours at 37° C. The wells were then thoroughly washed 3× with 1×PBS.
T-cells were extracted from C57BL/6 mouse spleens, using a standard procedure with minor modifications (71). Two mouse spleens were mechanically disrupted and the released cells were passed through a 70 μm filter. Red blood cells were lysed using RBC lysis buffer (eBioscience) at 4° C. for 5 minutes. 10 mL of 1×PBS was added to stop the lysis process, following which cells were pelleted at 300×g for 5 minutes. […]
Cells were collected and RNA was extracted using Direct-zol RNA MiniPrep Plus kits (Zymo), as per the manufacturer's instructions. Extracted RNA was converted into cDNA using SuperScript III First-Strand Synthesis System kits (Invitrogen). cDNA from treated T-cells was analyzed by RT-PCR using a LightCycler 480 instrument (Roche) and the LightCycler 480 SYBR Green I Master kit (Roche), per manufacturer's instructions. cDNA was analyzed using forward and reverse primers for Pdcd1, Tbx21, and Gapdh as a control, as described previously (10, 14). […]

MC38 colon cancer = assay: MC38 syngeneic colon cancer model, subcutaneous tumor growth; format: in vivo, C57BL/6 mice
Method: Treatment was repeated every three days for a total of three administrations. Mice were sacrificed four days after the final treatment. The study was executed as two separate experiments, using animal group sizes of n=6 and n=9, respectively. […] The first set of analyses was performed on the tumor volume growth curves (FIG. 5, panel A), impact on final tumor volumes (FIG. 5, panel B) and tumor weight (FIG. 5, panel C) at the time of sacrifice.
MC38 cells, stably transfected with a luciferase vector, were inoculated into the right flank of C57BL/6 mice, using 0.7×10^6 cells in 40% Matrigel 1×PBS solution. Tumors were allowed to grow to a size of ˜50 mm^3 prior to the initiation of treatment, approximately 14 days after initial inoculation. Mice with outlier tumor sizes (either too small or too large) were excluded from further study. The remaining animals were randomly assigned to the different treatment groups. Mice were treated with three injections, set three days apart, and were sacrificed 4 days after the final treatment administration. […] Two separate experiments were performed, the first with n=6 mice per group and the second with n=9 animals.

GSK3 = conditions: values provided by chemical vendors (Cayman Chemical, Selleck Chemicals); cited from earlier work

Compound: N#Cc1ccc2[nH]c(O)c(-c3ccc(CN4CCOCC4)cn3)c2c1 [AZD1080]
- Encapsulation Efficiency ([1]; AZD1080 remote loaded in silicasome, feed weight of 5%, ± SD, 3 samples): 62.5%
- Loading Capacity ([1]; AZD1080 remote loaded in silicasome, ± SD, 3 samples): 8.1 w/w %
- solubility during remote loading (in words) ([1]; dissolved in 0.9% saline, incubated with silicasome carrier, feed weight %): good aqueous solubility
- encapsulation efficiency in silicasomes (in words) ([1]; remote loading at 5, 10 or 20 feed weight %): highest encapsulation efficiency; also recorded: moderate efficiency
- Tbx21 mRNA expression (Tbx21 expression): increased
- number of tumor-free animals at time of sacrifice (out of 15) (MC38 colon cancer; MC38, three administrations, n=15 per group): 3/15
- tumor growth inhibition in MC38 (significance vs saline) (MC38 colon cancer; three administrations every three days, sAZD1080 5 mg/kg IV, free AZD1080 5 mg/kg IP, SB415286 8 mg/kg IP, anti-PD-1 4 mg/kg IP, n=15): no significant effect on tumor growth inhibition
- IC50 (GSK3): 31 nM
